Biological target: T1, recombinant human Flag-tagged PARP7 (amino acids 456-657) (Homo sapiens, UniProt Q7Z3E1)
T1 construct: recombinant human Flag-tagged PARP7 (amino acids 456-657)
T1 sequence (Q7Z3E1 456-657): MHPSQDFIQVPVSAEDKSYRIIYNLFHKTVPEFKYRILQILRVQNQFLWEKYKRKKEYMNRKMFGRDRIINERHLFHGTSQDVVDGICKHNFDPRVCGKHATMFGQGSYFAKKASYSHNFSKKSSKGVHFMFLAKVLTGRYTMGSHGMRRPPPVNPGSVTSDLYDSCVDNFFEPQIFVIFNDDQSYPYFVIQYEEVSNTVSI
Experiment: PARP7 biochemical DELFIA assay (auto-MARylation)
Conditions: DELFIA readout, IC50 class
Experimental: A suitable assay may be conducted using 10-30 nM PARP7 (amino acids 456-657), 2 μM biotin-NAD assay solution in 20 mM HEPES (pH 7.5), 100 mM NaCl, 2 mM DTT, 0.1% BSA (w/v), 0.02% Tween (v/v) assay buffer. MARylation may take place for 2-3 h at room temperature and may be detected using a dissociation-enhanced lanthanide fluorescence immunoassay (DELFIA) readout. This assay format has been recently utilised for screening for modulators of PARP7 and other MonoPARP enzymes ([…]. et al. Forced Self-Modification Assays as a Strategy to Screen MonoPARP Enzymes. SLAS Discovery. 25; 241-252, (2020)). A particularly suitable assay is described in the Examples below. Optiplate HB 384-well plates were coated with anti-FLAG antibody, supplied as a 4 mg/ml solution, using a Na2CO3/HCO3 coating buffer at pH 9.6, overnight at 4° C., in order to achieve a final immobilisation per well of 0.3 μg. Wells were then washed 3× in coating wash buffer (PBS/0.05% Tween (v/v)), blocked with 2% BSA (w/v) in coating wash buffer and washed 3 further times prior to assay. For the assay 20 μl of 12.5-37.5 nM recombinant human Flag-tagged PARP7 (amino acids 456-657) was added to each well of the 384-well plate for 30 min at room temperature. 50 nl of test compound in DMSO was added using pintool technology and plates were incubated for a further 30 min at room temperature. 5 μl of 15 μM biotin-NAD^+ assay solution in 20 mM HEPES (pH 7.5), 100 mM NaCl, 2 mM DTT, 0.1% BSA (w/v), 0.02% Tween (v/v) assay buffer was then added and MARylation proceeded for 2-3 h at room temperature prior to the addition of 5 μl of 12 mM NAD^+ quenching solution. After 30 min at room temperature, assay solution was removed and following washing 5 times, 100 μl of a 1:1000 dilution of DELFIA Eu-N1 Streptavidin reagent was added. Plates were then incubated for 30 min at room temperature. Reaction mixture was removed and plates washed 5 times prior to the addition of 25 μl DELFIA enhancement solution. Following incubation for 30 min at room temperature, fluorescence was read on either an Envision or Pherastar FS (Ex337 nm, Em620 nm).

SMILES | IC50 [nM]
CC(COCCC(=O)N1CCN(c2nnc(C(F)(F)F)s2)CC1)n1nc(C(F)(F)F)c2c(=O)[nH]ncc21 (single isomer, unassigned) [Compound 291] | 100 to 1000
COc1ccc(N2CCN(C(=O)CCOCC(C)n3nc(C(F)(F)F)c4c(=O)[nH]ncc43)CC2)nc1 (single isomer, unassigned) [Compound 306] | ≤ 100
CC(COCCC(=O)N1CCN(c2ccc(C3COC3)cn2)CC1)n1nc(C(F)(F)F)c2c(=O)[nH]ncc21 (single isomer, unassigned) [Compound 310] | ≤ 100
CC(COCCC(=O)N1CCN(c2ccc(C3COC3)cn2)CC1)n1nc(C(F)(F)F)c2c(=O)[nH]ncc21 (single isomer, unassigned) [Compound 311] | 100 to 1000
CC(COCCC(=O)N1CCN(c2nc(C#N)co2)CC1)n1nc(C(F)(F)F)c2c(=O)[nH]ncc21 (single isomer, unassigned) [Compound 318] | 100 to 1000
CC(COCCC(=O)N1CCN(c2nc(C#N)co2)CC1)n1nc(C(F)(F)F)c2c(=O)[nH]ncc21 (single isomer, unassigned) [Compound 319] | ≤ 100
CC(COCCC(=O)N1CCN(c2ncc(C#N)cn2)CC1)n1nc(C(F)(F)F)c2c(=O)[nH]ncc21 (single isomer, unassigned) [Compound 321, 2-(4-(3-(2-(4-oxo-3-(trifluoromethyl)-4,5-dihydro-1H-pyrazolo[3,4-d]pyridazin-1-yl)propoxy)propanoyl)piperazin-1-yl) pyrimidine-5-carbonitrile] | ≤ 100
CC(COCCC(=O)N1CCN(c2ncc(C#N)cn2)CC1)n1nc(C(F)(F)F)c2c(=O)[nH]ncc21 (single isomer, unassigned) [Compound 322, 2-(4-(3-(2-(4-oxo-3-(trifluoromethyl)-4,5-dihydro-1H-pyrazolo[3,4-d]pyridazin-1-yl)propoxy)propanoyl)piperazin-1-yl) pyrimidine-5-carbonitrile] | ≤ 100
CC(COCCC(=O)N1CCN(c2cnc(C(F)F)cn2)CC1)n1nc(C(F)(F)F)c2c(=O)[nH]ncc21 (single isomer, unassigned) [Compound 323] | ≤ 100
CC(COCCC(=O)N1CCN(c2cnc(C(F)F)cn2)CC1)n1nc(C(F)(F)F)c2c(=O)[nH]ncc21 (single isomer, unassigned) [Compound 324] | ≤ 100
CNC(=O)c1cnc(N2CCN(C(=O)CCOCC(C)n3nc(C(F)(F)F)c4c(=O)[nH]ncc43)CC2)nc1 (single isomer, unassigned) [Compound 326] | ≤ 100
CC(CCOCC(=O)N1CCN(c2ncc(C(F)(F)F)cn2)CC1)n1nc(C(F)(F)F)c2c(=O)[nH]ncc21 (single isomer, unassigned) [Compound 327, 1-(4-(2-oxo-2-(4-(5-(trifluoromethyl)pyrimidin-2-yl)piperazin-1-yl)ethoxy)butan-2-yl)-3-(trifluoromethyl)-1,5-dihydro-4H-pyrazolo[3,4-d]pyridazin-4-one] | ≤ 100
CC(CCOCC(=O)N1CCN(c2ncc(C(F)(F)F)cn2)CC1)n1nc(C(F)(F)F)c2c(=O)[nH]ncc21 (single isomer, unassigned) [Compound 328, 1-(4-(2-oxo-2-(4-(5-(trifluoromethyl)pyrimidin-2-yl)piperazin-1-yl)ethoxy)butan-2-yl)-3-(trifluoromethyl)-1,5-dihydro-4H-pyrazolo[3,4-d]pyridazin-4-one] | ≤ 100
COc1cnc(N2CCN(C(=O)CCOCC(C)n3nc(C(F)(F)F)c4c(=O)[nH]ncc43)CC2)nc1 (single isomer, unassigned) [Compound 331] | ≤ 100
COc1cnc(N2CCN(C(=O)CCOCC(C)n3nc(C(F)(F)F)c4c(=O)[nH]ncc43)CC2)nc1 (single isomer, unassigned) [Compound 332] | ≤ 100
Cc1nn(C(C)COCCC(=O)N2CCN(c3ncc(Cl)cn3)CC2)c2cn[nH]c(=O)c12 (single isomer, unassigned) [Compound 335] | ≤ 100
CCC(COCCC(=O)N1CCN(c2ncc(C(F)(F)F)cn2)CC1)n1cc(C(F)(F)F)c2c(=O)[nH]ncc21 (single isomer, unassigned) [Compound 338] | ≤ 100
CCC(COCCC(=O)N1CCN(c2ncc(C(F)(F)F)cn2)CC1)n1cc(C(F)(F)F)c2c(=O)[nH]ncc21 (single isomer, unassigned) [Compound 339] | ≤ 100
CC(COCCC(=O)N1CCN(c2noc(C(F)(F)F)n2)CC1)n1nc(C(F)(F)F)c2c(=O)[nH]ncc21 (single isomer, unassigned) [Compound 344] | ≤ 100
CC(COCCC(=O)N1CCN(c2ncc(F)cc2F)CC1)n1nc(C(F)(F)F)c2c(=O)[nH]ncc21 (single isomer, unassigned) [Compound 350] | ≤ 100

The next lines start with the values.

IC50 [nM] | SMILES
≤ 100 | Cc1nn(CCOCCC(=O)N2CCN(c3ncc(C(F)(F)F)cn3)C(C)C2)c2cn[nH]c(=O)c12 (single isomer, unassigned) [Compound 255]
≤ 100 | CC(COCCC(=O)N1CCN(c2ncc(C(F)(F)F)s2)CC1)n1nc(C(F)(F)F)c2c(=O)[nH]ncc21 (single isomer, unassigned) [Compound 258]
≤ 100 | Cc1nn(C(C)COCCC(=O)N2CCN(c3ncc(C#N)cn3)CC2)c2cn[nH]c(=O)c12 (single isomer, unassigned) [Compound 262]
≤ 100 | Cc1nn(C(C)COCCC(=O)N2CCN(c3ncc(C#N)cn3)CC2)c2cn[nH]c(=O)c12 (single isomer, unassigned) [Compound 263]
≤ 100 | CC(COCCC(=O)N1CCN(c2cnc(C(F)(F)F)cn2)CC1)n1nc(C(F)(F)F)c2c(=O)[nH]ncc21 (single isomer, unassigned) [Compound 266]
≤ 100 | CC(COCCC(=O)N1CCN(c2ccc(C#N)cn2)CC1)n1nc(C(F)(F)F)c2c(=O)[nH]ncc21 (single isomer, unassigned) [Compound 270]
≤ 100 | CC(COCCC(=O)N1CCN(c2ccc(OC(F)F)cn2)CC1)n1nc(C(F)(F)F)c2c(=O)[nH]ncc21 (single isomer, unassigned) [Compound 274]
≤ 100 | CC(COCCC(=O)N1CCN(c2ccc(C3CC3)cn2)CC1)n1nc(C(F)(F)F)c2c(=O)[nH]ncc21 (single isomer, unassigned) [Compound 279]
≤ 100 | CC(COCCC(=O)N1CCN(c2ncc(C3CC3)cn2)CC1)n1nc(C(F)(F)F)c2c(=O)[nH]ncc21 (single isomer, unassigned) [Compound 280]
≤ 100 | CC(COCCC(=O)N1CCN(c2ncc(C3CC3)cn2)CC1)n1nc(C(F)(F)F)c2c(=O)[nH]ncc21 (single isomer, unassigned) [Compound 281]
≤ 100 | CC(COCCC(=O)N1CCN(c2ncc(C#N)s2)CC1)n1nc(C(F)(F)F)c2c(=O)[nH]ncc21 (single isomer, unassigned) [Compound 284]
≤ 100 | CC(COCCC(=O)N1CCN(c2ncc(C3COC3)cn2)CC1)n1nc(C(F)(F)F)c2c(=O)[nH]ncc21 (single isomer, unassigned) [Compound 289]
≤ 100 | CC(COCCC(=O)N1CCN(c2ncc(OC(F)F)cn2)CC1)n1nc(C(F)(F)F)c2c(=O)[nH]ncc21 (single isomer, unassigned) [Compound 294]
≤ 100 | CNC(=O)c1ccc(N2CCN(C(=O)CCOCC(C)n3nc(C(F)(F)F)c4c(=O)[nH]ncc43)CC2)nc1 (single isomer, unassigned) [Compound 305]

Reference: patent US20240217968A1, “PHARMACEUTICAL COMPOUND” (DUKE STREET BIO LIMITED, priority 2021, published 2024)
